Assay results reported in US20240252670A1, “ANTIBODY DRUG CONJUGATE, PREPARATION METHOD THEREFOR AND APPLICATION THEREOF” (TSINGHUA UNIVERSITY, priority 2021, published 2024).

How the values were obtained:
MC38 tumor = assay: Anti-tumor activity and survival in MC38 mouse tumor model; format: in vivo; conditions: for inhibitory activity against MC38 tumor growth: MC38 mice, i.p., antibody drugs 150 μg per mouse, D18 25 μg per mouse, schedule Table 1
Description: (§1) A. Treatment with ADC HE-S2, single administration of anti-PD-L1 antibody, D18, or anti-PD-L1 THIOMAB, and anti-PD-L1 antibody/D18 combined administration for inhibitory activity against mouse MC38 tumor growth. B. Whole animal survival study. The ordinate of the curve represents the percentage of tumor-bearing mice that remained alive after different days, and the abscissa thereof represents the number of experimental days. C. Treatment with ADC HE-S2, single administration of anti-PD-L1 antibody, D18, or anti-PD-L1 THIOMAB, and anti-PD-L1 antibody/D18 combined administration for inhibitory activity against mouse MC38 tumor growth. Student's t test was used to compare significant differences between the groups, and p<0.001 is represented by ***.
To verify the anti-cancer activity of ADC HE-S2, the inventors first made a mouse model with MC38. After the tumor was loaded, a visible tumor could be observed on the mouse surface for about one week. When the mean tumor tissue volume of the mice reached 100 mm^3, the mice were randomly grouped as follows according to the final type of drug administered: IgG isotype control antibody group (abbreviated as IgG), anti-PD-L1 antibody group (anti-PD-L1), anti-PD-L1 THIOMAB group (Thiomab), D18 group (D18), D18/anti-PD-L1 antibody combination treatment group (anti-PD-L1 & D18), and ADC HE-S2 group (ADC HE-S2), with 7-8 mice per group. The IgG isotype control antibody group, the anti-PD-L1 antibody (i.e., avelumab as described in Example 2) group, and the anti-PD-L1 THIOMAB (i.e., mutant antibody prepared in Example 2) group were administered twice a week via intraperitoneal injection of 150 μg per mouse for each time. The D18 group was administered twice a week via intraperitoneal injection of 25 μg per mouse for each time. In the D18/anti-PD-L1 antibody combination treatment group, the anti-PD-L1 antibody was dosed twice a week, 150 μg per mouse for each time; the D18 was dosed […], 25 μg per mouse for each time; in the ADC HE-S2 group, ADC HE-S2 was dosed once a week via intraperitoneal injection of 150 μg per mouse for each time; the anti-PD-L1 antibody was dosed once a week, staggered from the administration of the ADC, via intraperitoneal injection of 150 μg per mouse for each time.
(§2) Dosage: Antibody drugs, administered 150 μg per mouse for each time, and D18, administered 25 μg per mouse for each time. - means no administration on the day. * Only mice with MC38 tumor model were allowed to be administered until the 24th day, and mice with B16 tumor model were no longer administered after the 21st day.

murine PD-L1 = murine PD-L1 (Mus musculus, UniProt Q9EP73); conditions: Deng et al., 2016; cited from earlier work
B16 melanoma = assay: Anti-tumor activity in B16 melanoma mouse model; format: in vivo; conditions: B16 mice, i.p.; antibody drugs 150 μg, D18 25 μg per mouse; dosing to day 21
Description: as §1
B16 melanoma is a tumor with low PD-L1 level and certain drug resistance to PD-1/PD-L1 blocking treatment. As a result, as expected by the inventors, the inhibitory effect of each drug on B16 melanoma was reduced relative to the MC38 tumor.
as §2

[1] = Effect of drug treatment on body weight of healthy mice; format: in vivo, mouse; conditions: antibody drugs 150 μg, D18 25 μg per dose
Experimental: Mice were treated with ADC HE-S2, anti-PD-L1 antibody+D18 in combination, anti-PD-L1 antibody alone, D18 alone, and isotype IgG, and their body weight variations were recorded. The time of administration for each drug is indicated by the arrow. Student's t test was used to compare significance differences between groups, wherein p<0.05 is represented by *. p<0.01 is represented by **, and no significance difference is represented by ns.
Then, the inventors examined the effect of each group of drug treatment on the body weight of mice in a mouse model to determine the toxic and side effects of the drugs used, and the results are shown in FIG. 17. Healthy mice were divided into an ADC group, an anti-PD-L1 antibody+D18 group, an anti-PD-L1 antibody group, a D18 group and an IgG group according to the administration, with 5 mice per group. The mode and dose of administration for each group of mice were the same as those in the mouse tumor model experiment: in the ADC group, ADC HE-S2 was dosed once a week, and the anti-PD-L1 antibody was […], 150 μg for each time; D18 was dosed once a week, 25 μg for each time; the anti-PD-L1 antibody and the IgG isotype antibody were dosed twice a week, 150 μg for each time.

murine PD-L1, sequence (Q9EP73 19-290): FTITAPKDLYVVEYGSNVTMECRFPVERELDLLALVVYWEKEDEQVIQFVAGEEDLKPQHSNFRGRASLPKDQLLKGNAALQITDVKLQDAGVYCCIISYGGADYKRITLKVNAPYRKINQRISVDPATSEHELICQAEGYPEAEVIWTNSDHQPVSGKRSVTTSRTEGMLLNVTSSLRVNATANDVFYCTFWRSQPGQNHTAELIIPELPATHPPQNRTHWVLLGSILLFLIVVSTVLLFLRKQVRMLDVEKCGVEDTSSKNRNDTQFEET

Compound | inhibitory activity against MC38 tumor growth (MC38 tumor) | cross-reaction with murine PD-L1 (murine PD-L1) | inhibitory effect on B16 melanoma (B16 melanoma) | body weight change of the mice after administration [1] | survival rate of mice (MC38 tumor; until day 70)
anti-PD-L1 antibody: fully humanized IgG1 type monoclonal anti-PD-L1 antibody drug avelumab [reference compound] | slightly superior to the efficacy of the IgG isotype antibody | cross-react with murine PD-L1 | almost comparative to that of the IgG isotype antibody | almost consistent with that of the blank control IgG group | 
CCCCNc1nc(N)nc2ccc(Cc3ccc(CN(C)C)cc3)nc12 [D18, N^4-butyl-6-(4-((dimethylamino)methyl)benzyl)pyridine[3,2-d]pyriproxyfen-2,4-diamine] | slightly superior to the efficacy of the IgG isotype antibody |  | almost comparative to that of the IgG isotype antibody | some decreases in body weight | 1/8
